Source: US12509460B2 (Skyhawk Therapeutics, Inc., priority 2019, dated 2025)

Assays:
[1] = test system: mHTT protein in GM04724 (CAG 70/20) Huntington's disease patient lymphoblast cells; assay: mHTT protein assay, 2B7-MW1 assay via Mesoscale Discovery (MSD); assay type: cell-based, human; settings: GM04724 Huntington's disease patient lymphoblasts
Method in brief: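 Patient lymphoblasts treated 48 h with compound from 10 μM to 0.6 nM. mHTT quantified by MSD 2B7-MW1 immunoassay, whose signal depends on polyQ expansion and HTT size. Viability measured on a replicate plate by CellTiter Glo.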

[2] = Quantitative splicing assay (HTT), qPCR; assay type: cell-based, human; settings: Homo sapiens, GM04724, 24 h, GM04724 lymphoblasts, qPCR, read-out: HTT Splicing: E49-50 EC50
Method in brief: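 Patient lymphoblasts (50,000 cells/well) dosed immediately after plating for 24 h at 2.5 uM to 0.15 nM in 0.1% DMSO. Lysed, cDNA made directly from cells, and inclusion of the intron 49 cryptic exon quantified by TaqMan qPCR.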

[3] = test system: SMN protein in spinal muscular atrophy (SMA) patient fibroblasts (GM03813, Coriell); assay: SMN protein assay, Mesoscale Discovery (MSD); assay type: cell-based, human; settings: SMA patient fibroblasts GM03813, 48 hours, MSD; read-out: SMN2 protein EC50
Method in brief: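 SMA patient fibroblasts (GM03813) seeded at 7000 cells/well and exposed to compound at 2.5 μM to 0.6 nM for 48 hours. Lysates assayed for SMN by MSD immunoassay, with absolute SMN amount calculated from a per-plate SMN standard curve (1 μg/ml to 19.5 pg/ml).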

[4] = test system: SMN FL and SMN Δ7 in spinal muscular atrophy (SMA) patient fibroblasts (GM03813, Coriell); assay: Quantitative splicing assay (SMN), qPCR; assay type: cell-based, human; settings: Homo sapiens, Fibroblast, 24 h, SMA patient fibroblasts GM03813, 24 h, qPCR; read-out: SMN2 Splicing FL EC50
Method: Spinal muscular atrophy (SMA) patient fibroblasts (GM03813, Coriell) are plated in 96-well plates at 50,000 cells/well. […] Treated cells are lysed and cDNA synthesized using the Fast Advanced Cells-to-Ct kit (Thermofisher A35378) according to the manufacturer's instructions. 2 μL of each cDNA are used in qPCR reactions. […] Reactions are run in a Quant Studio 6 qPCR instrument with default settings.

[5] = test system: MDR1-MDCK cell monolayers; assay: Blood-brain-barrier (BBB) penetration potential via MDCK-MDR1 permeability assay; settings: for MDCK-MDR1: % Recov A-B: A-B direction; for MDCK-MDR1: % Recov B-A: B-A direction
Method: (§1) Example A13: Assessment of Blood-Brain-Barrier (BBB) Penetration Potential Via an MDCK-MDR1 Permeability Assay
(§2) The permeability of compounds is assessed for BBB penetration potential by use of an MDCK-MDR1 assay (Catalog EA203) performed by Absorption Systems, Exton PA.
(§3) Experimental Procedure: MDR1-MDCK cell monolayers are grown to confluence on collagen-coated, microporous membranes in 12-well assay plates. The permeability assay buffer is Hanks' balanced salt solution containing 10 mM HEPES and 15 mM glucose at a pH of 7.4. The buffer in the receiver chamber also contained 1% bovine serum albumin. The dosing solution concentration is 5 μM of test article in the assay buffer. Cell monolayers are dosed on the apical side (A-to-B) or basolateral side (B-to-A) and incubated at 37° C. with 5% CO2 in a humidified incubator. Samples are taken from the donor and receiver chambers at 120 minutes. Each determination is performed in duplicate. The flux of lucifer yellow is also measured post-experimentally for each monolayer to ensure no damage is inflicted to the cell monolayers during the flux period. All samples are assayed by LC-MS/MS using electrospray ionization.
(§4) The apparent permeability (Papp) and percent recovery are calculated as follows:
(§5) Analytical Method: Liquid Chromatography. Column: Waters ACQUITY UPLC BEH Phenyl 30 ×2.1 mm, 1.7 μm; M.P. Buffer. 25 mM ammonium formate buffer, pH 3.5; Aqueous Reservoir (A): 90% water, 10% buffer, Organic Reservoir (B): 90% acetonitrile, 10% buffer, Flow Rate: 0.7 mL/minute; Gradient Program:
(§6) • Total Run Time: 1.00 minute • Autosampler. 2 μL injection volume • Wash1: water/methanol/2-propanol:1/1/1; with 0.2% formic acid • Wash2: 0.1% formic acid in water • Brain Penetration • Potential Classification: A-B Papp≥3.0 and Efflux Ratio <3.0: High • A-B Papp≥3.0 and 10≥Efflux Ratio >3.0: Moderate • A-B Papp≥3.0 and Efflux Ratio≥10: Low • A-B Papp<3.0: Low

MDR1 (P-gp) = assay: as above; settings: dog; for Papp A→B at 120 min, 5 μM: MDCK-MDR1, pH 7.4, MDCK-MDR1: Papp A-B, A-B direction; for Papp B→A at 120 min, 5 μM: MDCK-MDR1, pH 7.4, MDCK-MDR1: Papp B-A, B-A direction
Method: as §1, §2, §3, §4, §5, §6

MDR1 = assay: as above; settings: dog, MDCK-MDR1, pH 7.4, MDCK-MDR1: Efflux, efflux ratio
Method: as §1, §2, §3, §4, §5, §6

| SMILES | EC50 [1] | EC50 [2] | EC50 [3] | EC50 [4] | MDCK-MDR1: % Recov A-B [5] | MDCK-MDR1: % Recov B-A [5] | Papp A→B at 120 min, 5 μM (MDR1 (P-gp)) | Papp B→A at 120 min, 5 μM (MDR1 (P-gp)) | efflux ratio at 120 min, 5 μM (MDR1) |
| --- | --- | --- | --- | --- | --- | --- | --- | --- | --- |
| CN(c1ccc(-c2cc(F)c(-c3ccoc(=O)c3)cc2O)nn1)[C@H]1C[C@@H]2CC[C@@H](N2)[C@H]1F [Compound 17B, 4-(2-fluoro-4-(6-(((1R,2R,3S,5S)-2-fluoro-8-azabicyclo[3.2.1]octan-3-yl)(methyl)amino)pyridazin-3-yl)-5-hydroxyphenyl)-2H-pyran-2-one] | 16 to 50 nM | 16 to 50 nM | 16 to 50 nM | 51 to 100 nM | 62% | 79% | 1.91 ×10⁻⁶ cm/s | 36.8 ×10⁻⁶ cm/s | 19 |
| CCc1cn(-c2ccc(-c3ccc(N(C)[C@@H]4C[C@H]5CC(F)(F)[C@@H](C4)N5)nn3)c(O)c2)cn1 [Compound 18A, 2-(6-(((1S,3R,5R)-6,6-difluoro-8-azabicyclo[3.2.1]octan-3-yl)(methyl)amino)pyridazin-3-yl)-5-(4-ethyl-1H-imidazol-1-yl)phenol] | 51 to 100 nM | 16 to 50 nM | 0.01 to 15 nM | 16 to 50 nM | 56% | 71% | 7 ×10⁻⁶ cm/s | 40.7 ×10⁻⁶ cm/s | 6 |
| CN(c1ccc(-c2ccc(-c3ccccn3)cc2O)nn1)[C@H]1C[C@@H]2CCC[C@@H](N2)[C@H]1F [Compound 23B, 2-(6-(((1R,2R,3S,5S)-2-fluoro-9-azabicyclo[3.3.1]nonan-3-yl)(methyl)amino)pyridazin-3-yl)-5-(pyridin-2-yl)phenol] | 16 to 50 nM | 16 to 50 nM | 0.01 to 15 nM | 16 to 50 nM | 68% | 98% | 3.17 ×10⁻⁶ cm/s | 48.2 ×10⁻⁶ cm/s | 15 |
| CN(c1ccc(-c2ccc(-c3cnccn3)cc2O)nn1)[C@@H]1C[C@H]2CCC[C@H](N2)[C@@H]1F [Compound 24A, 2-(6-(((1S,2S,3R,5R)-2-fluoro-9-azabicyclo[3.3.1]nonan-3-yl)(methyl)amino)pyridazin-3-yl)-5-(pyrazin-2-yl)phenol] | 51 to 100 nM | 51 to 100 nM | 0.01 to 15 nM | 101 to 500 nM | 79% | 90% | 4.73 ×10⁻⁶ cm/s | 61.3 ×10⁻⁶ cm/s | 13 |
| CN(c1ccc(-c2ccc(-c3cnccn3)cc2O)nn1)[C@H]1C[C@@H]2CCC[C@@H](N2)[C@H]1F [Compound 24B, 2-(6-(((1R,2R,3S,5S)-2-fluoro-9-azabicyclo[3.3.1]nonan-3-yl)(methyl)amino)pyridazin-3-yl)-5-(pyrazin-2-yl)phenol] | 0.01 to 15 nM | 0.01 to 15 nM | 0.01 to 15 nM | 0.01 to 15 nM | 73% | 91% | 5.99 ×10⁻⁶ cm/s | 33.8 ×10⁻⁶ cm/s | 6 |
| Cc1cnc(-c2ccc(-c3ccc(N(C)[C@H]4C[C@@H]5CCC[C@@H](N5)[C@H]4F)nn3)c(O)c2)cn1 [Compound 26B, 2-(6-(((1R,2R,3S,5S)-2-fluoro-9-azabicyclo[3.3.1]nonan-3-yl)(methyl)amino)pyridazin-3-yl)-5-(5-methylpyrazin-2-yl)phenol] | 0.01 to 15 nM | 51 to 100 nM | 0.01 to 15 nM | 51 to 100 nM | 60% | 81% | 2.76 ×10⁻⁶ cm/s | 45.1 ×10⁻⁶ cm/s | 16 |
| Cc1ccc(-c2ccc(-c3ccc(N(C)[C@H]4C[C@@H]5CCC[C@@H](N5)[C@H]4F)nn3)c(O)c2)nn1 [Compound 27B, 2-(6-(((1R,2R,3S,5S)-2-fluoro-9-azabicyclo[3.3.1]nonan-3-yl)(methyl)amino)pyridazin-3-yl)-5-(6-methylpyridazin-3-yl)phenol] | 0.01 to 15 nM | 16 to 50 nM | 0.01 to 15 nM | 0.01 to 15 nM | 98% | 115% | 1.13 ×10⁻⁶ cm/s | 43.5 ×10⁻⁶ cm/s | 38 |
| CN(c1ccc(-c2ccc(-c3cnc(C#N)cn3)cc2O)nn1)[C@H]1C[C@@H]2CCC[C@@H](N2)[C@H]1F [Compound 28B, 5-(4-(6-(((1R,2R,3S,5S)-2-fluoro-9-azabicyclo[3.3.1]nonan-3-yl)(methyl)amino)pyridazin-3-yl)-3-hydroxyphenyl) pyrazine-2-carbonitrile] | 16 to 50 nM | 0.01 to 15 nM | 0.01 to 15 nM | 0.01 to 15 nM | 36% | 70% | 1.11 ×10⁻⁶ cm/s | 38.9 ×10⁻⁶ cm/s | 35 |
| COc1cnc(-c2ccc(-c3ccc(N(C)[C@@H]4C[C@H]5CCC[C@H](N5)[C@@H]4F)nn3)c(O)c2)cn1 [Compound 29A, 2-(6-(((1S,2S,3R,5R)-2-fluoro-9-azabicyclo[3.3.1]nonan-3-yl)(methyl)amino)pyridazin-3-yl)-5-(5-methoxypyrazin-2-yl)phenol] | 16 to 50 nM | 16 to 50 nM | 0.01 to 15 nM | 501 to 10000 nM | 26% | 60% | 1.85 ×10⁻⁶ cm/s | 12.6 ×10⁻⁶ cm/s | 7 |
| COc1cnc(-c2ccc(-c3ccc(N(C)[C@H]4C[C@@H]5CCC[C@@H](N5)[C@H]4F)nn3)c(O)c2)cn1 [Compound 29B, 2-(6-(((1R,2R,3S,5S)-2-fluoro-9-azabicyclo[3.3.1]nonan-3-yl)(methyl)amino)pyridazin-3-yl)-5-(5-methoxypyrazin-2-yl)phenol] | 0.01 to 15 nM | 16 to 50 nM | 0.01 to 15 nM | 501 to 10000 nM | 21% | 48% | 1.54 ×10⁻⁶ cm/s | 5.63 ×10⁻⁶ cm/s | 4 |
| CN(c1ccc(-c2ccc(C3=CCCC3)cc2O)nn1)[C@H]1C[C@@H]2CC[C@@H](N2)[C@H]1F [Compound 34B, 5-(cyclopent-1-en-1-yl)-2-(6-(((1R,2R,3S,5S)-2-fluoro-8-azabicyclo[3.2.1]octan-3-yl)(methyl)amino)pyridazin-3-yl)phenol] | 51 to 100 nM | 51 to 100 nM | 16 to 50 nM | 16 to 50 nM | 12% | 48% | 1.02 ×10⁻⁶ cm/s | 2.81 ×10⁻⁶ cm/s | 3 |
